The source of these data is US6967196B1, “Sulfonamide compounds and uses thereof” (Bristol-Myers Squibb Company, priority 1999, dated 2005).

The subject of the assay is amyloid β production in transfected H4 (human neuroglioma) cells stably expressing APP constructs. The assay is described as follows: In vitro cell-based assay of inhibitors of amyloid β production (ELISA). The conditions noted are these: Homo sapiens, 16 h, transfected H4 cells stably expressing APP; approximately 16 hours incubation; amyloid β in medium by ELISA; Table B; read-out: ACTIVITY (IC50, inhibition of amyloid β production). Put shortly:
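Test agents are screened at 10-100 μM for about 16 hours on cells stably expressing wild-type or variant APP. Secreted Aβ is measured by ELISA and compared with control-treated cells.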
For orientation: ELISA stands for enzyme-linked immunosorbent assay.

Usually IC50 stands for the concentration that inhibits the measured activity by half. In the case of `C[C@H](c1ccccc1CCC(=O)NC1CCCCC1)N(c1cc(F)ccc1F)S(=O)(=O)c1ccc(Cl)cc1` [Example 401, 3-[2-((1R)-1-{[(4-chlorophenyl)sulfonyl]-2,5-difluoroanilino}ethyl)phenyl]-N-cyclohexylpropanamide], the IC50 was in the range of 0.05 to 0.1 µM.
